Data on one compound can be found in patent US9326971B2, “4-methylpyrazole formulations for inhibiting ethanol intolerance” (Raptor Pharmaceuticals Inc., priority 2004, dated 2016).

Where two headings read alike, the source gives them in different places.

Assay [1] has as its system ethanol elimination rate. Conditions: human subjects, cited from earlier work.
For assay [2], the system named is ethanol elimination rate. The assay can be described thus: Percent reduction in ethanol elimination rate versus dose of 4-MP in human subjects (literature data, FIG. 2). The settings on record: doses of 4 mg/kg 4-MP and less; from linear least squares fit of literature data (FIG. 2). In kind it is in vivo. The source says:
As used herein, “ethanol elimination rate” refers to the reduction in ethanol concentration in a subject's bloodstream over time after the subject has ingested ethanol. Typically, an ethanol elimination rate can be expressed in terms of millimole ethanol/kilogram subject body mass/hour. Techniques for blood sampling and analysis of ethanol levels in blood are well known to those of skill in the art. See, e.g., Inoue et al., Alcoholism: Clinical and Experimental Research 1984, 8, 319-322, incorporated herein by reference in its entirety. A “percent change in ethanol elimination rate,” can be calculated as follows:
[formula] where EtOH represents ethanol, and a number for a percent change in ethanol elimination that is less than 100 is a reduction in the percent change in EtOH elimination. Blood ethanol levels can also be calculated, for example, based on algorithms utilizing the amount of ethanol consumed by a subject, the subject's body mass, and time period since the consumption of ethanol, or, as another example, blood ethanol levels can be extrapolated from analysis of a subject's breath, and the like, as known to those of skill in the art. […]

In assay [3] the test system is serum acetaldehyde concentration. The assay can be described thus: Blinded, intra-subject controlled single dose study: serum acetaldehyde after oral 4-MP and ethanol in ethanol-intolerant subjects genotyped for ALDH2 and ADH2. In kind it is in vivo, human. Here is the method: A blinded, intra-subject controlled, single dose, dose escalation study of 4-MP for mitigation of acetaldehyde related toxicity in subjects with symptoms of inborn altered ethanol metabolism with concomitant ethanol exposure was undertaken.
Twenty-four subjects (n=24) were randomly selected and orally administered 1 mg/kg, 3 mg/kg, or 5 mg/kg of 4-MP, followed 30 minutes later by an oral dose of 20% ethanol ([…]).
Using the same protocol, wherein 4-MP was replaced with placebo, each of the twenty-four randomly selected subjects served as its own control.
The twenty-four randomly selected subjects were then subjected to blood sampling, and the sampled blood analyzed for acetaldehyde levels at select time points following ethanol consumption.
For acetaldehyde analysis, blood samples were prepared by dilution with an internal standard (acetaldehyde-d4), with derivatization of acetaldehyde with dinitrophenyl hydrazine in hydrochloric acid, liquid-liquid portioning and solvent exchange. The derivatization forms an acetaldehyde-dinitrophenyl hydrazine (DNPH) derivative which dramatically increases the boiling point of the molecule and thus its relative stability compared to the acetaldehyde itself (Nagy et al., Rapid Communications in Mass Spectrometry 2004, 18, 2473-2478). The derivatized analytes were separated using a Jones Chromatography (Grace-Vydac), 50 mm×2.1 mm, 3 μm column held in an oven set at 28° C. Two mobile phases were used in a gradient consisting of 30:70 acetonitrile:water versus 90:10 acetonitrile:water with 0.1% formic acid. The derivatized analyte was detected on a High Performance Liquid Chromatograph equipped with a Mass Spectrometer (HPLC/MS/MS). Quantitation was performed using a linear regression curve fit of impurities standards with 1/x weighting, prepared from dilutions of acetaldehyde in water. Samples and standards were injected at 2 μL.
All […] subjects were then genotyped for ALDH2 and ADH2 at the Alcohol Research Center at Indiana University using (i) genomic DNA isolation and (ii) TaqMan assay for allelic discrimination. • i. Genomic DNA isolation: DNA was first isolated using the “HotSHOT” method for isolating PCR quality genomic DNA (Truett et al., Biotechniques 2000, 29(1), 52-54). Briefly, blood blotted on filter paper (3 mm circle) was placed in the well of a 96-well plate and mixed with 75 μL 25 mM NaOH/0.3 mM EDTA solution and heated to 95° C. for 40 minutes, followed by neutralization with 75 μL 40 mM Tris-HCl (pH 5) solution. 1-5 microliters were used for each PCR. • ii. TaqMan Assay for Allelic Discrimination: The allelic discrimination assay used a multiplexed (more than one primer/probe pair per reaction), end-point (data is collected at the end of the PCR process) assay. Each assay mix contained two different TaqMan probes (Applied BioSystems, Foster City, Calif.), labeled with VIC or FAM fluorescent reporter dye, which bound preferentially to one of the alleles. The genotype of each sample was determined by the fluorescence levels of the reporter dyes and was clustered on a graph with other samples of the same genotype. Each reaction contained 5 μL of 2×TaqMan Universal PCR Masternix, No AmpErase UNG, 3.75 μL of water, 0.25 μL of 40× Assay Mix, and 1 μL of DNA sample. Eight or eleven controls were included on each 96-well plate: two no template controls, two or three heterozygous samples, and two or three of each of the homozygous samples. Thermocycling was carried out in MJ Research PTC-200 thermocyclers. The PCR products were then analyzed in an ABI PRISM® 7300 Sequence Detection System (SDS) instrument. SDS Software 1.3.1 converted the raw data to pure dye components and plotted the results of the allelic discrimination on a scatter plot of Allele X versus Allele Y (e.g., ADH2*1 versus ADH2*2); each genotype appeared on the graph as a cluster of points. […]

[4] abbreviates: all subjects with reduced or absent ALDH2 activity, 1, 3 or 5 mg/kg 4-MP.
Where [5] appears, read: reduced ALDH2 activity, ADH2*1/ADH2*1 or ADH2*1/ADH2*2, 1 mg/kg 4-MP.
Setting [6] is: reduced or absent ALDH2 activity, ADH2*2/ADH2*2, 1 mg/kg 4-MP.

Consider `Cc1cn[nH]c1` [4-MP, 4-methylpyrazole], for which the “reduction in EtOH elimination” value is on record as 20% with ethanol elimination rate [1] (6 mg 4-MP per kilogram body weight, Lindros et al. 1981); 12% with ethanol elimination rate [1] (8.5 mg 4-MP per kilogram body weight, Inoue et al. 1985); 20% in the assay on ethanol elimination rate [1] (10 mg 4-MP per kilogram body weight, Inoue et al. 1984); 34% with ethanol elimination rate [1] (12.5 mg 4-MP per kilogram body weight, Sarkola et al. 2002). In addition, in the assay with ethanol elimination rate [2], the “reduction in ethanol elimination” value is reported as “less than 10%”. In addition, the “Cmax mean and AUC0-8H mean of acetaldehyde concentration in the blood, versus absence of 4-MP (in words)” value is listed as “not significantly reduced” in assay [3] (setting [4]), “significantly reduced” in assay [3] (setting [5]) and “not significantly reduced” in assay [3] (setting [6]). In addition, in assay [3] (setting [4]), the “peak mean acetaldehyde concentration in the blood due to drinking ethanol (FIG. 5), versus placebo” value is on record as “not reduced”. The “peak mean acetaldehyde concentration in the blood due to drinking ethanol (FIG. 3), versus placebo” value in assay [3] (setting [5]) is “can be reduced”. The “peak mean acetaldehyde concentration in the blood due to drinking ethanol (FIG. 4), versus placebo” value in assay [3] (setting [6]) is “not reduced”.
